This is an account of results in patent US7687481B2, “Cannabinoid receptor antagonists/inverse agonists useful for treating obesity” (Jenrin Discovery, Inc., priority 2006, dated 2010).

pIC50: −log10 of the molar value. Bounds are passed on as bounds.

The first series deals with T1, human cannabinoid CB1 receptor (Homo sapiens, UniProt P21554).
T1 construct: expressed in transfected cells; host or cells: Chinese hamster ovary (CHO) cells, stably transfected; membrane preparation
T1 sequence (P21554 whole entry): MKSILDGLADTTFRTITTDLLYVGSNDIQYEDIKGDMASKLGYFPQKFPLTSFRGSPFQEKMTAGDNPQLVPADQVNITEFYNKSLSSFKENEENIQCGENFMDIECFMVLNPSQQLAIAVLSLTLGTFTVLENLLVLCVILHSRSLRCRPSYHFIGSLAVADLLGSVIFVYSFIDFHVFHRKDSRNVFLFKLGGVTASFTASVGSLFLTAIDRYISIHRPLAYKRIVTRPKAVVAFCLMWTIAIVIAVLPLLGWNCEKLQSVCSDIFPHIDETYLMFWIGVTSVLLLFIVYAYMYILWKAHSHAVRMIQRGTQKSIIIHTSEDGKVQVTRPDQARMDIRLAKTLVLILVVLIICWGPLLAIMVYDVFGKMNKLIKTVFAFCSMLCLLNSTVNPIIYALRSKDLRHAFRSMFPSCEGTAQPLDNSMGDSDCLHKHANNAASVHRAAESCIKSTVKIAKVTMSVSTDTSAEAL
The series can be described thus: CB1 receptor affinity, [3H]CP-55,940 radioligand binding to CHO cell membranes.
Conditions: not given
Here is the method:
CB1 receptor affinities can be determined using membrane preparations of Chinese hamster ovary (CHO) cells in which the human cannabinoid CB1 receptor is stably transfected (Biochem J. 1991, 279, 129-134) in conjunction with [3H]CP-55,940 as radioligand. After incubation of a freshly prepared cell membrane preparation with the [3H]-radioligand, with or without addition of test compound, separation of bound and free ligand is performed by filtration over glass fiber filters. Radioactivity on the filter is measured by liquid scintillation counting. The IC50 values can be determined from at least three independent measurements.
Tables A-E below describe selected examples of the present invention that have been synthesized and tested. The activities of these compounds are as follows: • +=an IC50 of ≦10 μM; • ++=IC50 of ≦1 μM; and, • +++=an IC50 ≦100 nM.
Turning to `CCOC(=O)C(CC(C)C)NC(=O)c1nn(-c2ccc(Cl)cc2Cl)c(-c2ccc(Cl)cc2)c1C` (stereo not shown) [Example A-8], the pIC50 was greater than 7.00. `CCOC(=O)C(NC(=O)c1nn(-c2ccc(Cl)cc2Cl)c(-c2ccc(Cl)cc2)c1C)C(C)(C)C` (stereo not shown) [Example A-11] gave a pIC50 greater than 7.00. As for `Cc1c(C(=O)NC(C(N)=O)C(C)(C)C)nn(-c2ccc(Cl)cc2Cl)c1-c1ccc(Cl)cc1` (stereo not shown) [Example B-10], the pIC50 was greater than 7.00.

Still in this series, the particulars now being: Table A; read-out: CB1 Receptor Activity.
For `CCOC(=O)CNC(=O)c1nn(-c2ccc(Cl)cc2Cl)c(-c2ccc(Cl)cc2)c1C` [Example A-1], the pIC50 was greater than 5.00. Still for that read-out and setting: then `CCOC(=O)C(Cc1ccccc1)NC(=O)c1nn(-c2ccc(Cl)cc2Cl)c(-c2ccc(Cl)cc2)c1C` (stereo not shown) [Example A-2], with greater than 6.00; and `CCOC(=O)CCNC(=O)c1nn(-c2ccc(Cl)cc2Cl)c(-c2ccc(Cl)cc2)c1C` [Example A-3], with greater than 5.00; and `Cc1c(C(=O)NC(Cc2ccccc2)C(=O)O)nn(-c2ccc(Cl)cc2Cl)c1-c1ccc(Cl)cc1` (stereo not shown) [Example A-4], with greater than 5.00. `CCOC(=O)CCCNC(=O)c1nn(-c2ccc(Cl)cc2Cl)c(-c2ccc(Cl)cc2)c1C` [Example A-5]: the pIC50 is greater than 5.00. For `CCOC(=O)CC(C)NC(=O)c1nn(-c2ccc(Cl)cc2Cl)c(-c2ccc(Cl)cc2)c1C` (stereo not shown) [Example A-6], the pIC50 is greater than 6.00. As for `CCOC(=O)C(C)NC(=O)c1nn(-c2ccc(Cl)cc2Cl)c(-c2ccc(Cl)cc2)c1C` (stereo not shown) [Example A-7], the pIC50 was greater than 6.00. For `Cc1c(C(=O)NC(CC(C)C)C(=O)O)nn(-c2ccc(Cl)cc2Cl)c1-c1ccc(Cl)cc1` (stereo not shown) [Example A-9], the pIC50 was greater than 6.00. For the compound `CCOC(=O)C(NC(=O)c1nn(-c2ccc(Cl)cc2Cl)c(-c2ccc(Cl)cc2)c1C)C(C)CC` (stereo not shown) [Example A-10], the pIC50 is greater than 7.00.

Turning to `Cc1c(C(=O)NC(C(=O)O)C(C)(C)C)nn(-c2ccc(Cl)cc2Cl)c1-c1ccc(Cl)cc1` (stereo not shown) [Example A-12], the pIC50 is greater than 7.00.

Staying with this series, now noted: Table B; read-out: CB1 Receptor Activity.
In the case of `Cc1c(C(=O)NCCC(N)=O)nn(-c2ccc(Cl)cc2Cl)c1-c1ccc(Cl)cc1` [Example B-1], the pIC50 was greater than 5.00. In the case of `Cc1c(C(=O)NC(C)CC(N)=O)nn(-c2ccc(Cl)cc2Cl)c1-c1ccc(Cl)cc1` (stereo not shown) [Example B-2], the pIC50 is greater than 5.00. Same read-out and setting: to `Cc1c(C(=O)NC(CC(C)C)C(N)=O)nn(-c2ccc(Cl)cc2Cl)c1-c1ccc(Cl)cc1` (stereo not shown) [Example B-3] belongs greater than 6.00; to `CCC(C)C(NC(=O)c1nn(-c2ccc(Cl)cc2Cl)c(-c2ccc(Cl)cc2)c1C)C(N)=O` (stereo not shown) [Example B-4], greater than 7.00. As to `Cc1c(C(=O)NC(Cc2ccccc2)C(N)=O)nn(-c2ccc(Cl)cc2Cl)c1-c1ccc(Cl)cc1` (stereo not shown) [Example B-5], the pIC50 is greater than 7.00. For the compound `Cc1c(C(=O)NCc2cccc(C(N)=O)c2)nn(-c2ccc(Cl)cc2Cl)c1-c1ccc(Cl)cc1` [Example B-6], the pIC50 is greater than 6.00. `Cc1c(C(=O)NCc2ccc(C(N)=O)cc2)nn(-c2ccc(Cl)cc2Cl)c1-c1ccc(Cl)cc1` [Example B-7]: the pIC50 was greater than 6.00. With `Cc1c(C(=O)NCc2cccc(C(=N)N)c2)nn(-c2ccc(Cl)cc2Cl)c1-c1ccc(Cl)cc1` [Example B-8], the pIC50 is greater than 6.00. On to `Cc1c(C(=O)NCc2ccc(C(=N)N)cc2)nn(-c2ccc(Cl)cc2Cl)c1-c1ccc(Cl)cc1` [Example B-9], for which the pIC50 was greater than 5.00.

The series is the same for the next values; noted with them: Table C; read-out: CB1 Receptor Activity.
Turning to `CCOC(=O)C1CCCN(NC(=O)c2nn(-c3ccc(Cl)cc3Cl)c(-c3ccc(Cl)cc3)c2C)C1` (stereo not shown) [Example C-1], the pIC50 is greater than 6.00.

Turning to `CCOC(=O)C1CCN(NC(=O)c2nn(-c3ccc(Cl)cc3Cl)c(-c3ccc(Cl)cc3)c2C)CC1` [Example C-2], the pIC50 is greater than 6.00. As to `Cc1c(C(=O)NN2CCCC(C(N)=O)C2)nn(-c2ccc(Cl)cc2Cl)c1-c1ccc(Cl)cc1` (stereo not shown) [Example C-3], the pIC50 was greater than 7.00.

Still in this series, the particulars now being: Table E; read-out: CB1 Receptor Activity.
As for `CCOC(=O)C1CCC(NC(=O)c2nn(-c3ccc(Cl)cc3Cl)c(-c3ccc(Cl)cc3)c2C)CC1` (stereo not shown) [Example E-1], the pIC50 was greater than 5.00.

For `Cc1c(C(=O)NC2CCC(C(N)=O)CC2)nn(-c2ccc(Cl)cc2Cl)c1-c1ccc(Cl)cc1` (stereo not shown) [Example E-2], the pIC50 is greater than 5.00.

Test system in the next series: not given
Test: not given
The note with it: dose-related, most pronounced at the most efficacious weight-reducing dose; cited from earlier work.
As to `Cc1c(C(=O)NN2CCCCC2)nn(-c2ccc(Cl)cc2Cl)c1-c1ccc(Cl)cc1` [rimonabant], the side effects result was “psychiatric and nervous system side effects”.

The series is the same for the next values; noted with them: obese patients; cited from earlier work.
Regarding `Cc1c(C(=O)NN2CCCCC2)nn(-c2ccc(Cl)cc2Cl)c1-c1ccc(Cl)cc1` [rimonabant], the weight loss result is on record as “clinically meaningful weight loss”.

Test system in a further series: not given
Test: not given
The note with it: usually not maintained; cited from earlier work.
In the case of `CCCCCCCCCCC[C@@H](C[C@@H]1OC(=O)[C@H]1CCCCCC)OC(=O)[C@H](CC(C)C)NC=O` [orlistat], the “initial weight loss compared to placebo” value is on record as “approximately 5%”. As to `CC(C)CC(N(C)C)C1(c2ccc(Cl)cc2)CCC1` (stereo not shown) [sibutramine], the “initial weight loss compared to placebo” value is on record as “approximately 5%”.
